Laboratory results reported in publication PMC12299477 (Viruses, 2025).
pEC50: −log10 of the molar value.

Legend:
HCoV-OC43 [1] = assay: Virus inhibition assay (focus reduction), HCoV-OC43 on MRC-5 cells; assay type: cell-based, human coronavirus; conditions: Betacoronavirus 1, OC43, MRC5, read-out: EC50 (µM) (95% CI)
[2] = Cell viability MTS assay on Hep-2 cells; conditions: human
in vitro = conditions: human
Hep-2 cells = assay: Cytotoxic effect microscopically visible in the RSV-A2 screening; assay type: cell-based, human; parameters: key: -: Cytotoxic effect microscopically visible; conditions: 33 µM
[3] = tested on: human bronchial epithelium (MucilAir); assay: LDH cytotoxicity assay on 3D human bronchial epithelium; assay type: cell-based; conditions: 6 µM and 12 µM, harvested daily up to 72 h
RSV-A2 [4] = assay: Virus inactivation (virucidal) assay, RSV-A2; assay type: cell-based, respiratory syncytial virus; conditions: EC90 dose, 2 h incubation with 200,000 PFUs
IFV-B = assay: Virus inhibition assay, IFV-B on MDCK cells; assay type: cell-based; conditions: unidentified influenza virus, read-out: EC50 (µM) (95% CI)
RSV-A2 [5] = assay: Anti-RSV activity on a 3D model of human bronchial epithelium; assay type: cell-based, respiratory syncytial virus; conditions: for Reduction in RSV progeny: 72 h post-infection, 10,000 PFUs
IFV-A H1N1 [6] = assay: Virus inhibition assay (focus reduction), IFV-A H1N1 on MDCK cells; assay type: cell-based; conditions: Influenza A virus, read-out: EC50 (µM) (95% CI)
RSV-A2 [7] = assay: Virus inhibition assay, RSV-A2 on A549 cells; assay type: cell-based; conditions: human respiratory syncytial virus, read-out: EC50 (µM) (95% CI)
IFV-A H1N1 [8] = assay: Virus inhibition assay, IFV-A H1N1 on A549 cells; assay type: cell-based; conditions: Influenza A virus, read-out: EC50 (µM) (95% CI)
HCoV-OC43 [9] = assay: Time-of-addition assay, HCoV-OC43; assay type: cell-based, human coronavirus; conditions: for pEC50: Betacoronavirus 1, HCoV-OC43
HCoV-229E = assay: Virus inhibition assay, HCoV-229E on MRC-5 cells; assay type: cell-based; conditions: Human coronavirus 229E, MRC5, read-out: EC50 (µM) (95% CI)
[10] = Cell viability MTS assay on MDCK cells; conditions: dog
RSV-A2 [11] = assay: Time-of-addition assay, RSV-A2; assay type: cell-based, respiratory syncytial virus
RSV-A2 [12] = assay: Immunofluorescence of dsRNA and viral protein, RSV-A2 in Hep-2 cells; assay type: cell-based, respiratory syncytial virus; conditions: EC50 (2µM) or 2-fold EC90 dose (30µM), 24h post-infection
RSV-A2 [13] = assay: Virus inhibition assay (plaque reduction), RSV-A2 on Hep-2 cells; assay type: cell-based; conditions: human respiratory syncytial virus; RSV-A2, Hep-2 cells; read-out: EC50 (µM) (95% CI)
IFV-A H3N2 = assay: Virus inhibition assay, IFV-A H3N2 on MDCK cells; assay type: cell-based; conditions: Influenza A virus, read-out: EC50 (µM) (95% CI)
RSV-B = assay: Virus inhibition assay, RSV strain B WV/14617/85 on Hep-2 cells; assay type: cell-based; conditions: human respiratory syncytial virus; RSV B WV/14617/85, Hep-2 cells; read-out: EC50 (µM) (95% CI)
HCoV-OC43 [14] = assay: Virus inhibition assay, HCoV-OC43 on A549 cells; assay type: cell-based, human coronavirus; conditions: Betacoronavirus 1, read-out: EC50 (µM) (95% CI)
[15] = Cell viability MTS assay on MRC-5 cells; assay type: cell-based; conditions: human, same conditions as HCoV inhibition assay, read-out: CC50 (µM) (95% CI)
HCoV-OC43 [16] = assay: Virus inactivation (virucidal) assay, HCoV-OC43; assay type: cell-based, human coronavirus; conditions: EC90 dose, 2 h incubation with 200,000 FFUs

CC(C)(CC(=O)O)NC(=O)c1cc(-c2ccccc2)c(=O)n2c1sc1ccc(OC3CCCCC3)cc12 [Compound 1]
EC50 (HCoV-OC43 [1]): 4.83 µM | CC50 [2]: 61.3 µM | CC50 (in vitro): 57.6 µM | CC50 (in vitro; CC50 (µM) (95% CI), A549 cells, HCoV OC43 assay conditions): 150 µM | CC50 (in vitro; CC50 (µM) (95% CI), A549 cells, RSV A2 assay conditions): 30.8 µM | Cytotoxic effect microscopically visible (Hep-2 cells): - ^a | Cytotoxic effect on the epithelia (LDH assay on basal media) [3]: did not exert any cytotoxic effect | Virucidal activity on extracellular RSV particle (RSV-A2 [4]): did not directly inactivate | EC50 (IFV-B): 4.21 µM | Reduction in RSV progeny (RSV-A2 [5]; 6 µM every 24 h): 1.1 log | Reduction in RSV progeny (RSV-A2 [5]; 12 µM every 24 h): 1.5 log | Morphology of the bronchial epithelial cells in infected treated sample (RSV-A2 [5]; brightfield images, compared to infected untreated): sufficiently preserved | Anti-RSV immunopositivity of the epithelia (RSV-A2 [5]; end of experiment, immunofluorescence): reduction in immunopositivity | EC50 (IFV-A H1N1 [6]): 5.49 µM | EC50 (RSV-A2 [7]): 7.78 µM | EC50 (IFV-A H1N1 [8]): 6.29 µM | pEC50 (HCoV-OC43 [9]; after infection, read-out: EC50, post-treatment): 5.12 | pEC50 (HCoV-OC43 [9]; during infection, read-out: EC50, co-treatment): 4.79 | Activity against HCoV-OC43, treatment before the infection (HCoV-OC43 [9]; pre-treatment): did not exert inhibitory activity | EC50 (HCoV-229E): 45.3 µM | CC50 [10]: 41.1 µM | Activity against RSV, pre-treatment (RSV-A2 [11]; compound added 2 h before infection): not active | Activity against RSV, co-treatment (RSV-A2 [11]; compound added with virus inoculum, first 2 h of infection): not active | pEC50 (RSV-A2 [11]; human respiratory syncytial virus, RSV, treated 72 h after removal of viral inoculum, read-out: EC50, post-treatment): 5.09 | Effect on nucleic acid replication and viral protein production of RSV-A2 (RSV-A2 [12]): did not inhibit | EC50 (RSV-A2 [13]): 1.3 µM | EC50 (IFV-A H3N2): 5.96 µM | EC50 (RSV-B): 4.23 µM | EC50 (HCoV-OC43 [14]): 8.14 µM | CC50 [15]: 59.6 µM | Virucidal activity: HCoV-OC43 titer (HCoV-OC43 [16]): modest—although negligible—reduction
